From ChEMBL document CHEMBL1208763, “Discovery of potent, selective, and orally bioavailable 3H-spiro[isobenzofuran-1,4'-piperidine] based melanocortin subtype-4 receptor agonists” (Bioorg Med Chem Lett, 2010) come the findings set out here.

The data set can be described thus: in vivo. The note with it: Sprague-Dawley, rat, po, 4 mg/kg.

Compound `CC(C)(C#N)[C@H]1OC2(CCN(C(=O)[C@@H]3CN(C4CCOCC4)C[C@H]3c3ccc(F)cc3F)CC2)c2cc(F)c(Cl)cc21` displayed a bioavailability of 23%.

As to `CC(=O)NC(C)(C)[C@H]1OC2(CCN(C(=O)[C@@H]3CN(C4CCOCC4)C[C@H]3c3ccc(F)cc3F)CC2)c2cc(Cl)c(C)cc21`, the bioavailability came to 26%.
